Experiments:
p38 alpha = molecular target: T1, p38 alpha (Homo sapiens, UniProt Q16539); assay: P38 alpha enzyme inhibition assay (Alphascreen kinase activity assay); format: biochemical; conditions: 100 pM p38 alpha, 2 hours preincubation at 25° C., 250 μM ATP, ATF-2 fusion protein; read-out: p38α inhibition
T1 construct: purchased Invitrogen PV3304
How it was run: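 Phosphorylation of ATF-2 fusion protein (0.3 μg/ml) read by AlphaScreen with anti-phospho-ATF2 antibody after 1 h kinase reaction at 25 °C, initiated by 250 μM ATP. Compounds first incubated 2 h at 25 °C with 100 pM p38 alpha in pH 7.5 HEPES buffer, 1% DMSO. IC50 derived from concentration-response data.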

[1] = tested on: Peripheral Blood Mononuclear Cells (PBMCs), TNFα release; assay: LPS-stimulated PBMC TNFα release assay; format: cell-based; conditions: human PBMC, LPS (10 ng/ml), 18 h, compound 1 h before LPS; read-out: LPS-stimulated PBMC TNFα release inhibition
How it was run: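 TNFα in cell-free supernatant, read on MSD plates, gave % inhibition curves and IC50 (≥3 separate experiments). Healthy-donor PBMCs had 1 h compound exposure at 37 °C in 1% FBS medium, then 18 h stimulation with 10 ng/ml LPS, after a 3 h serum-free rest.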

T1 sequence (Q16539 whole entry, the tested form may be a part): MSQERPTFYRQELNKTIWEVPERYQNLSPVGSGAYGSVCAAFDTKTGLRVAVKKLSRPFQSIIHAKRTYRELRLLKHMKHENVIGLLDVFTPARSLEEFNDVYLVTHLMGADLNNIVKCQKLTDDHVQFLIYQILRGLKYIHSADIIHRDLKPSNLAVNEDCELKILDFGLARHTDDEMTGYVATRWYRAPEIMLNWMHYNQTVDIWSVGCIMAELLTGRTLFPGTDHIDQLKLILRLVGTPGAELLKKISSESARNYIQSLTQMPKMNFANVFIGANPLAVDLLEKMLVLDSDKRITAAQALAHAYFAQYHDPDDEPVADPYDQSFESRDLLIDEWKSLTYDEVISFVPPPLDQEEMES

IC50 (p38 alpha) [nM]	Structure (SMILES)	IC50 [1] [nM]
1 to 10	COc1ncc(C(C)(C)C)cc1NC(=O)N[C@H]1CC[C@@H](Oc2ccc3nnc([C@]4(C)CCCN4C)n3c2)c2ccccc21 [Example 52, 1-(5-(tert-Butyl)-2-methoxypyridin-3-yl)-3-((1S,4R)-4-((3-((S)-1,2-dimethylpyrrolidin-2-yl)-[1,2,4]triazolo[4,3-a]pyridin-6-yl)oxy)-1,2,3,4-tetrahydronaphthalen-1-yl)urea]	< 1
1 to 10	CNC(=O)c1cc(NC(=O)N[C@H]2CC[C@@H](Oc3ccc4nnc([C@]5(C)CCCN5C)n4c3)c3ccccc32)cc(C(C)(C)C)n1 [Example 53, 6-(tert-Butyl)-4-(3-((1S,4R)-4-((3-((S)-1,2-dimethylpyrrolidin-2-yl)-[1,2,4]triazolo[4,3-a]pyridin-6-yl)oxy)-1,2,3,4-tetrahydronaphthalen-1-yl)ureido)-N-methylpicolinamide]	1 to 5
< 1	COCC(C)(C)c1nnc2ccc(O[C@@H]3CC[C@H](NC(=O)Nc4cc(C(C)(C)C)nc(C(=O)NCCN(C)C)n4)c4ccccc43)cn12 [Example 54, 4-(tert-Butyl)-N-(2-(dimethylamino)ethyl)-6-(3-((1S,4R)-4-((3-(methoxy-2-methylpropan-2-yl)-[1,2,4]triazolo[4,3-a]pyridin-6-yl)oxy)-1,2,3,4-tetrahydronaphthalen-1-yl)ureido)pyrimidine-2-carboxamide]	1 to 5
1 to 10	CN(C)CCNC(=O)c1nc(NC(=O)N[C@H]2CC[C@@H](Oc3ccc4nnc(C5(C)COC5)n4c3)c3ccccc32)cc(C(C)(C)C)n1 [Example 55, 4-(tert-Butyl)-N-(2-(dimethylamino)ethyl)-6-(3-((1S,4R)-4-((3-(3-methyloxetan-3-yl)-[1,2,4]triazolo[4,3-a]pyridin-6-yl)oxy)-1,2,3,4-tetrahydronaphthalen-1-yl)ureido)pyrimidine-2-carboxamide]	> 5
1 to 10	CO[C@@H](C)c1nnc2ccc(O[C@@H]3CC[C@H](NC(=O)Nc4cc(C(C)(C)C)nc(C(=O)NCCN(C)C)n4)c4ccccc43)cn12 [Example 56, 4-(tert-Butyl)-N-(2-(dimethylamino)ethyl)-6-(3-((1S,4R)-4-((3-((S)-1-methoxyethyl)-[1,2,4]triazolo[4,3-a]pyridin-6-yl)oxy)-1,2,3,4-tetrahydronaphthalene-1-yl)ureido)pyrimidin-2-carboxamide]	> 5
1 to 10	COC(C)(C)c1nnc2ccc(O[C@@H]3CC[C@H](NC(=O)Nc4cc(COCCN5CCOCC5)nc(C(C)(C)C)c4)c4ccccc43)cn12 [Example 57]	> 5
< 1	CN(C)CCNC(=O)c1cc(C(C)(C)C)cc(NC(=O)N[C@H]2CC[C@@H](Oc3ccc4nnc(C(C)(C)C)n4c3)c3ccccc32)n1 [Example 58, 4-(tert-Butyl)-6-(3-((1S,4R)-4-((3-(tert-butyl)-[1,2,4]triazolo[4,3-a]pyridin-6-yl)oxy)-1,2,3,4-tetrahydronaphthalen-1-yl)ureido)-N-(2-(dimethylamino)ethyl)picolinamide]	1 to 5
1 to 10	CN(C)CCNC(=O)c1nc(NC(=O)N[C@H]2CC[C@@H](Oc3ccc4nnc(CC(C)(C)C)n4c3)c3ccccc32)cc(C(C)(C)C)n1 [Example 59, 4-(tert-Butyl)-N-(2-(dimethylamino)ethyl)-6-(3-((1S,4R)-4-((3-neopentyl-[1,2,4]triazolo[4,3-a]pyridin-6-yl)oxy)-1,2,3,4-tetrahydronaphthalen-1-yl)ureido)pyrimidine-2-carboxamide]	> 5
< 1	CC(C)Cc1nnc2ccc(O[C@@H]3CC[C@H](NC(=O)Nc4cc(C(C)(C)C)nc(C(=O)NCCO)n4)c4ccccc43)cn12 [Example 60, 4-(tert-Butyl)-N-(2-hydroxyethyl)-6-(3-((1S,4R)-4-((3-isobutyl-[1,2,4]triazolo[4,3-a]pyridin-6-yl)oxy)-1,2,3,4-tetrahydronaphthalen-1-yl)ureido)pyrimidine-2-carboxamide]	1 to 5
1 to 10	CN1CCC[C@@]1(C)c1nnc2ccc(O[C@@H]3CC[C@H](NC(=O)Nc4cc(C(=O)NCCO)nc(C(C)(C)C)c4)c4ccccc43)cn12 [Example 61, 6-(tert-Butyl)-4-(3-((1S,4R)-4-((3-((S)-1,2-dimethylpyrrolidin-2-yl)-[1,2,4]triazolo[4,3-a]pyridin-6-yl)oxy)-1,2,3,4-tetrahydronaphthalen-1-yl)ureido)-N-(2-hydroxyethyl)picolinamide]	1 to 5
< 1	CN(C)CCNC(=O)c1cc(NC(=O)N[C@H]2CC[C@@H](Oc3ccc4nnc([C@]5(C)CCCN5C)n4c3)c3ccccc32)cc(C(C)(C)C)n1 [Example 62, 6-(tert-Butyl)-N-(2-(dimethylamino)ethyl)-4-(3-((1S,4R)-4-((3-((S)-1,2-dimethylpyrrolidin-2-yl)-[1,2,4]triazolo[4,3-a]pyridin-6-yl)oxy)-1,2,3,4-tetrahydronaphthalen-1-yl)ureido)picolinamide]	> 5
< 1	CC(C)(C)c1cc(NC(=O)N[C@H]2CC[C@@H](Oc3ccc4nnc(C5CCCC5)n4c3)c3ccccc32)nc(C(=O)NCCO)n1 [Example 64]	> 5
< 1	CC(C)c1nnc2ccc(O[C@@H]3CC[C@H](NC(=O)Nc4cc(C(C)(C)C)nc(C(=O)NCCO)n4)c4ccccc43)cn12 [Example 65, 4-(tert-butyl)-N-(2-hydroxyethyl)-6-(3-((1S,4R)-4-((3-isopropyl-[1,2,4]triazolo[4,3-a]pyridin-6-yl)oxy)-1,2,3,4-tetrahydronaphthalen-1-yl)ureido)pyrimidine-2-carboxamide]	> 5
1 to 10	CC(C)c1nnc2ccc(O[C@@H]3CC[C@H](NC(=O)Nc4cc(C(C)(C)C)nc(C(=O)NCCN5CCOCC5)n4)c4ccccc43)cn12 [Example 66, 4-(tert-butyl)-6-(3-((1S,4R)-4-((3-isopropyl-[1,2,4]triazolo[4,3-a]pyridin-6-yl)oxy)-1,2,3,4-tetrahydronaphthalen-1-yl)ureido)-N-(2-morpholinoethyl)pyrimidine-2-carboxamide]	> 5
1 to 10	COCCN(C)CCNC(=O)c1nc(NC(=O)N[C@H]2CC[C@@H](Oc3ccc4nnc(C(C)(C)C)n4c3)c3ccccc32)cc(C(C)(C)C)n1 [Example 67, 4-(tert-butyl)-6-(3-((1S,4R)-4-((3-(tert-butyl)-[1,2,4]triazolo[4,3-a]pyridin-6-yl)oxy)-1,2,3,4-tetrahydronaphthalen-1-yl)ureido)-N-(2-((2-methoxyethyl)(methyl)amino)ethyl)pyrimidine-2-carboxamide]	1 to 5
< 1	CC(C)(C)c1cc(NC(=O)N[C@H]2CC[C@@H](Oc3ccc4nnc(C(C)(C)C)n4c3)c3ccccc32)nc(C(=O)NCCN2CCOCC2)n1 [Example 68, 4-(tert-butyl)-6-(3-((1S,4R)-4-((3-(tert-butyl)-[1,2,4]triazolo[4,3-a]pyridin-6-yl)oxy)-1,2,3,4-tetrahydronaphthalen-1-yl)ureido)-N-(2-morpholinoethyl)pyrimidine-2-carboxamide]	1 to 5
< 1	CCC(CC)c1nnc2ccc(O[C@@H]3CC[C@H](NC(=O)Nc4cc(C(C)(C)C)nc(C(=O)NCCN5CCOCC5)n4)c4ccccc43)cn12 [Example 69, 4-(tert-butyl)-N-(2-morpholinoethyl)-6-(3-((1S,4R)-4-((3-(pentan-3-yl)-[1,2,4]triazolo[4,3-a]pyridin-6-yl)oxy)-1,2,3,4-tetrahydronaphthalen-1-yl)ureido)pyrimidine-2-carboxamide]	1 to 5
1 to 10	COCCN(C)CCNC(=O)c1nc(NC(=O)N[C@H]2CC[C@@H](Oc3ccc4nnc(C(C)C)n4c3)c3ccccc32)cc(C(C)(C)C)n1 [Example 70, 4-(tert-butyl)-6-(3-((1S,4R)-4-((3-isopropyl-[1,2,4]triazolo[4,3-a]pyridin-6-yl)oxy)-1,2,3,4-tetrahydronaphthalen-1-yl)ureido)-N-(2-((2-methoxyethyl)(methyl)amino)ethyl)pyrimidine-2-carboxamide]	> 5
< 1	CCC(CC)c1nnc2ccc(O[C@@H]3CC[C@H](NC(=O)Nc4cc(C(C)(C)C)nc(C(=O)NCCO)n4)c4ccccc43)cn12 [Example 72, 4-(tert-butyl)-N-(2-hydroxyethyl)-6-(3-((1S,4R)-4-((3-(pentan-3-yl)-[1,2,4]triazolo[4,3-a]pyridin-6-yl)oxy)-1,2,3,4-tetrahydronaphthalen-1-yl)ureido)pyrimidine-2-carboxamide]	1 to 5
< 1	CCC(CC)c1nnc2ccc(O[C@@H]3CC[C@H](NC(=O)Nc4cc(C(C)(C)C)nc(C(=O)NCCN(C)CCOC)n4)c4ccccc43)cn12 [Example 73, 4-(tert-butyl)-N-(2-((2-methoxyethyl)(methyl)amino)ethyl)-6-(3-((1S,4R)-4-((3-(pentan-3-yl)-[1,2,4]triazolo[4,3-a]pyridin-6-yl)oxy)-1,2,3,4-tetrahydronaphthalen-1-yl)ureido)pyrimidine-2-carboxamide]	1 to 5
1 to 10	CN(C)CCNC(=O)c1nc(NC(=O)N[C@H]2CC[C@@H](Oc3ccc4nnc(C5CCCC5)n4c3)c3ccccc32)cc(C(C)(C)C)n1 [Example 74, 4-(tert-butyl)-6-(3-((1S,4R)-4-((3-cyclopentyl-[1,2,4]triazolo[4,3-a]pyridin-6-yl)oxy)-1,2,3,4-tetrahydronaphthalen-1-yl)ureido)-N-(2-(dimethylamino)ethyl)-pyrimidine-2-carboxamide]	> 5
